Measurements published in paper PMC6277577, “In Salmonella enterica, OatA (Formerly YjgM) Uses O-Acetyl-Serine and Acetyl-CoA to Synthesize N,O-Diacetylserine, Which Upregulates Cysteine Biosynthesis” (Frontiers in Microbiology, 2018).

Columns and labels:
OatA (formerly YjgM) = target: T1, OatA (formerly YjgM) (Salmonella enterica, UniProt Q08021); experiment: isothermal titration calorimetry with purified OatA; assay type: binding
T1 sequence (Q08021 1-167): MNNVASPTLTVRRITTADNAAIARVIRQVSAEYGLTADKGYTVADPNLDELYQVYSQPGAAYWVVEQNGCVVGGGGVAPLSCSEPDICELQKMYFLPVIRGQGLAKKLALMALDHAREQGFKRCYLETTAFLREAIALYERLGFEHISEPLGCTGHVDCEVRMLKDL

purified protein = substrate: CC(=O)OC[C@H](N)C(=O)O; experiment: purified protein; assay type: biochemical, Salmonella enterica; settings: acetyl-CoA positively cooperative (h = […]); no OAS binding seen by ITC under conditions tested, suggesting AcCoA binds before OAS

## CC(=O)SCCNC(=O)CCNC(=O)[C@H](O)C(C)(C)COP(=O)(O)OP(=O)(O)OC[C@H]1O[C@@H](n2cnc3c(N)ncnc32)[C@H](O)[C@@H]1OP(=O)(O)O [acetyl-CoA]
OatA (formerly YjgM)
  Kd: ~22 µM

B1: OatA (formerly YjgM) (Salmonella enterica subsp. enterica serovar Typhimurium str. LT2) (protein)
chain: T1 sequence (Q08021 1-167)
Purified protein
  Km: 740 µM
